Values belong to the compound of their own block, whether it stands above or below them.
Tests used:
[1] = test system: male erectile dysfunction; settings: monotherapy or combination as stated; cited from earlier work
[2] = in vivo; cited from earlier work
[3] = test system: male erectile dysfunction; settings: in vivo; cited from earlier work
[4] = Text: Suitable pharmaceutical vehicles are well known to those skilled in the art and are described in several manuals, including Remington's Pharmaceutical Sciences, 15th edition. […] Similarly, formulations containing PGE1, papaverine, phentolamine and atropine, should be kept under refrigeration.
[5] = test system: male erectile dysfunction; settings: intranasal; cited from earlier work

Structure (SMILES): Cc1ccc(N(CC2=NCCN2)c2cccc(O)c2)cc1 [Phentolamine, phentolamine]
- erectile response [1]: does not reliably produce an erection sufficient for intercourse

- stability in storage [4]: not stable in water at room temperature
Structure (SMILES): CCCCC[C@H](O)/C=C/[C@H]1[C@H](O)CC(=O)[C@@H]1CCCCCCC(=O)O [PGE1, Prostaglandin E1]
- half life [2]: short half life compared with papaverine and phentolamine
- subjects with significant pain [3]: up to 40%

Structure (SMILES): COc1ccc(Cc2nccc3cc(OC)c(OC)cc23)cc1OC [papaverine]
- erectile response [1]: unpredictable response

Structure (SMILES): CCCc1nn(C)c2c(=O)[nH]c(-c3cc(S(=O)(=O)N4CCN(C)CC4)ccc3OCC)nc12 [sildenafil]
- time to response in producing an erection [5]: within five minutes
